Source: patent US8623863B2, “Disubstituted azepan orexin receptor antagonists” (Merck Sharp & Dohme Corp., priority 2008, dated 2014)

Biological target: orexin-2 receptor (OX2R) (Homo sapiens (Human), UniProt O43614)
Experiment: radioligand binding assay, OX2R
Conditions: membranes prepared from CHO cells expressing the orexin-2 (OX2) receptor
Description: The utility of the compounds in accordance with the present invention as orexin receptor OX1R and/or OX2R antagonists may be readily determined without undue experimentation by methodology well known in the art, including the “FLIPR Ca^2+ Flux Assay” (Okumura et al., Biochem. Biophys. Res. Comm. 280:976-981, 2001). In a typical experiment the OX1 and OX2 receptor antagonistic activity of the compounds of the present invention was determined in accordance with the following experimental method. For intracellular calcium measurements, Chinese hamster ovary (CHO) cells expressing the rat OX1 receptor or the human OX2 receptor, are grown in Iscove's modified DMEM containing 2 mM L-glutamine, […], 1% hypoxanthine-thymidine supplement, 100 U/ml penicillin, 100 ug/ml streptomycin and 10% heat-inactivated fetal calf serum (FCS). The cells are seeded at 20,000 cells/well into Becton-Dickinson black 384-well clear bottom sterile plates coated with poly-D-lysine. All reagents were from GIBCO-Invitrogen Corp. The seeded plates are incubated overnight at 37° C. and 5% CO2. Ala-6,12 human orexin-A as the agonist is prepared as a 1 mM stock solution in 1% bovine serum albumin (BSA) and diluted in assay buffer (HBSS containing 20 mM HEPES, 0.1% BSA and 2.5 mM probenecid, pH7.4) for use in the assay at a final concentration of 70 pM. Test compounds are prepared as 10 mM stock solution in DMSO, then diluted in 384-well plates, first in DMSO, then assay buffer. On the day of the assay, cells are washed 3 times with 100 ul assay buffer and then incubated for 60 min (37° C., 5% CO2) in 60 ul assay buffer containing 1 uM Fluo-4AM ester, 0.02% pluronic acid, and 1% BSA. The dye loading solution is then aspirated and cells are washed 3 times with 100 ul assay buffer. 30 ul of that same buffer is left in each well. Within the Fluorescent Imaging Plate Reader (FLIPR, Molecular Devices), test compounds are added to the plate in a volume of 25 ul, incubated for 5 min and finally 25 ul of agonist is added. Fluorescence is measured for each well at 1 second intervals for 5 minutes and the height of each fluorescence peak is compared to the height of the fluorescence peak induced by 70 pM Ala-6,12 orexin-A with buffer in place of antagonist. For each antagonist, IC50 value (the concentration of compound needed to inhibit 50% of the agonist response) is determined. Alternatively, compound potency can be assessed by a radioligand binding assay (described in Bergman et. al. Bioorg. Med. Chem. Lett. 2008, 18, 1425-1430) in which the inhibition constant (Ki) is determined in membranes prepared from CHO cells expressing either the orexin-1 (OX1) or orexin-2 (OX2) receptor. The intrinsic orexin receptor antagonist activity of a compound which may be used in the present invention may be determined by these assays.

orexin-2 receptor (OX2R), sequence (O43614 whole entry): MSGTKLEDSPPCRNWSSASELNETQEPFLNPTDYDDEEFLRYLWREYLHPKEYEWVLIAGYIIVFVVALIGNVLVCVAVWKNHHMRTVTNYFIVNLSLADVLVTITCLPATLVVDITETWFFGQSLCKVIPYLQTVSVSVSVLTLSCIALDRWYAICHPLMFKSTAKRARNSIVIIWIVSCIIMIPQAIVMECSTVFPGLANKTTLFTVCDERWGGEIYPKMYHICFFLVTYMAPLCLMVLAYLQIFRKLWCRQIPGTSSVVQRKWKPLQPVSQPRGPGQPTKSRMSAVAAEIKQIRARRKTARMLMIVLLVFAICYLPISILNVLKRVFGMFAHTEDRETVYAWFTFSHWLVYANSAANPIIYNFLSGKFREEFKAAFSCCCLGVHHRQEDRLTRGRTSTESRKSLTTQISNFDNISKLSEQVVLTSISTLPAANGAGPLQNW

| SMILES | Ki |
| --- | --- |
| Cc1ccc(-c2ncco2)c(C(=O)N2CC(COc3ccc(F)cn3)CCCC2C)c1 (stereo not drawn) [3-4, 6-{[(5-fluoropyridin-2-yl)oxy]methyl}-2-methyl-1-[5-methyl-2-(1,3-oxazol-2-yl)benzoyl]azepane] | 13 nM |
| Cc1ccc(-n2nccn2)c(C(=O)N2CC(COc3ccc(F)cn3)CCCC2C)c1 (stereo not drawn) [2-10, 6-{[(5-fluoropyridin-2-yl)oxy]methyl}-2-methyl-1-[5-methyl-2-(2H-1,2,3-triazol-2-yl)benzoyl]azepane] | 9.7 nM |
| Cc1ccc(-n2nccn2)c(C(=O)N2CC(COc3ccc(F)c(C)c3)CCCC2C)c1 (stereo not drawn) [2-8, 6-[(4-fluoro-3-methylphenoxy)methyl]-2-methyl-1-[5-methyl-2-(2H-1,2,3-triazol-2-yl)benzoyl]azepane] | 3.3 nM |
| Cc1ccc(-c2ncccn2)c(C(=O)N2CC(COc3ccc(F)cn3)CCCC2C)c1 (stereo not drawn) [3-6, 6-{[(5-fluoropyridin-2-yl)oxy]methyl}-2-methyl-1-(5-methyl-2-pyrimidin-2-ylbenzoyl)azepane] | 14 nM |
| Cc1ccc(-n2nccn2)c(C(=O)N2CC(COc3ccc(F)c(C)c3)COCC2C)c1 (stereo not drawn) [4-8, 6-[(4-fluoro-3-methylphenoxy)methyl]-3-methyl-4-[5-methyl-2-(2H-1,2,3-triazol-2-yl)benzoyl]-1,4-oxazepane] | 8.7 nM |
| CC1CCCC(COc2ccc(F)cn2)CN1C(=O)c1ccccc1-n1nccn1 (stereo not drawn) [2-11, 6-{[(5-fluoropyridin-2-yl)oxy]methyl}-2-methyl-1-[2-(2H-1,2,3-triazol-2-yl)benzoyl]azepane] | 28 nM |
| Cc1ccc(-c2ncccn2)c(C(=O)N2CC(COc3ccc(F)c(C)c3)CCCC2C)c1 (stereo not drawn) [3-3, 6-[(4-fluoro-3-methylphenoxy)methyl]-2-methyl-1-(5-methyl-2-pyrimidin-2-ylbenzoyl)azepane] | 10 nM |
| Cc1cc(OCC2COCC(C)N(C(=O)c3ccccc3-n3nccn3)C2)ccc1F (stereo not drawn) [4-9, 6-[(4-fluoro-3-methylphenoxy)methyl]-3-methyl-4-[2-(2H-1,2,3-triazol-2-yl)benzoyl]-1,4-oxazepane] | 11 nM |
| Cc1ccc(-n2nccn2)c(C(=O)N2CCCCC(COc3ccc(F)c(C)c3)C2)c1 (stereo not drawn) [1-8, 3-[(4-Fluoro-3-methylphenoxy)methyl]-1-[5-methyl-2-(2H-1,2,3-triazol-2-yl)benzoyl]azepane] | 7.9 nM |
| Cc1ccc(-c2nccs2)c(C(=O)N2CC(COc3ccc(F)c(C)c3)CCCC2C)c1 (stereo not drawn) [3-2, 6-[(4-fluoro-3-methylphenoxy)methyl]-2-methyl-1-[5-methyl-2-(1,3-thiazol-2-yl)benzoyl]azepane] | 4.2 nM |
| Cc1ccc(-c2nccs2)c(C(=O)N2CC(COc3ccc(F)cn3)CCCC2C)c1 (stereo not drawn) [3-5, 6-{[(5-fluoropyridin-2-yl)oxy]methyl}-2-methyl-1-[5-methyl-2-(1,3-thiazol-2-yl)benzoyl]azepane] | 3.8 nM |
| Cc1cc(OCC2CCCC(C)N(C(=O)c3ccccc3-n3nccn3)C2)ccc1F (stereo not drawn) [2-9, 6-[(4-fluoro-3-methylphenoxy)methyl]-2-methyl-1-[2-(2H-1,2,3-triazol-2-yl)benzoyl]azepane] | 10 nM |
